Measurements: patent US4870097A, “Pharmaceutical use of derivatives of tryptophan” (priority 1984, dated 1989)

The compounds below were run on activity of analgesic drugs (assay: Hot plate test: potentiation of analgesic drugs). Conditions: analgesic alone i.p. (Prop 15, Oxy 50, Asa 100 mg/kg); 10'.
Assay type: in vivo, rats
Experimental: The method is that described by Eddy et al. (J. Pharmac. Exp. Ther. 107, 385 (1953)).
Groups of five male rats having a weight of about 150 g and which have not been fasting are used.
The animals are placed on a metal plate which is on the bottom of a transparent cylinder heated to 55°±1° C. by an azeotropic boiling mixture (1:1 acetone-ethyl formate). The time which passes between the moment at which the animal is placed on the hot plate and the moment at which it licks its feet or tries to jump out of the cylinder is defined as the reaction time. The control reaction time is measured 10 and 5 minutes before the administration of the drugs and 10, 20, 30, 45, 60, 90 minutes afterwards. The animals are left on the plate for a maximum period of 30 seconds.
The response to the administration of the product is considered positive if at least a doubling of the normal reaction time is seen. The results obtained are given in Table 2 which records the groups treated, the dose administered and the stay times on the plate expressed as the number of positive responses over the number treated.

Row | SMILES | positive responses over the number treated, 10'
1 | CC(=O)Oc1ccccc1C(=O)O [Acetylsalicylic acid, reference compound] | 1/5
2 | CCCCC1C(=O)N(c2ccccc2)N(c2ccc(O)cc2)C1=O (stereo not drawn) [Oxyphenylbutazone, reference compound] | 2/5
3 | CCC(=O)O[C@](Cc1ccccc1)(c1ccccc1)[C@H](C)CN(C)C [Propoxyphene, reference compound] | 2/5

Same assay, conditions: analgesic alone i.p. (Prop 15, Oxy 50, Asa 100 mg/kg); 10'-60'

Row | SMILES | Positive Total X/25
4 | CC(=O)Oc1ccccc1C(=O)O [Acetylsalicylic acid, reference compound] | 7
5 | CCCCC1C(=O)N(c2ccccc2)N(c2ccc(O)cc2)C1=O (stereo not drawn) [Oxyphenylbutazone, reference compound] | 7
6 | CCC(=O)O[C@](Cc1ccccc1)(c1ccccc1)[C@H](C)CN(C)C [Propoxyphene, reference compound] | 11

Same assay, conditions: analgesic alone i.p. (Prop 15, Oxy 50, Asa 100 mg/kg); 20'

Row | SMILES | positive responses over the number treated, 20'
7 | CC(=O)Oc1ccccc1C(=O)O [Acetylsalicylic acid, reference compound] | 2/5
8 | CCCCC1C(=O)N(c2ccccc2)N(c2ccc(O)cc2)C1=O (stereo not drawn) [Oxyphenylbutazone, reference compound] | 1/5
9 | CCC(=O)O[C@](Cc1ccccc1)(c1ccccc1)[C@H](C)CN(C)C [Propoxyphene, reference compound] | 2/5

Same assay, conditions: analgesic alone i.p. (Prop 15, Oxy 50, Asa 100 mg/kg); 30'

Row | SMILES | positive responses over the number treated, 30'
10 | CC(=O)Oc1ccccc1C(=O)O [Acetylsalicylic acid, reference compound] | 2/5
11 | CCCCC1C(=O)N(c2ccccc2)N(c2ccc(O)cc2)C1=O (stereo not drawn) [Oxyphenylbutazone, reference compound] | 2/5
12 | CCC(=O)O[C@](Cc1ccccc1)(c1ccccc1)[C@H](C)CN(C)C [Propoxyphene, reference compound] | 3/5

Same assay, conditions: analgesic alone i.p. (Prop 15, Oxy 50, Asa 100 mg/kg); 45'

Row | SMILES | positive responses over the number treated, 45'
13 | CC(=O)Oc1ccccc1C(=O)O [Acetylsalicylic acid, reference compound] | 2/5
14 | CCCCC1C(=O)N(c2ccccc2)N(c2ccc(O)cc2)C1=O (stereo not drawn) [Oxyphenylbutazone, reference compound] | 2/5
15 | CCC(=O)O[C@](Cc1ccccc1)(c1ccccc1)[C@H](C)CN(C)C [Propoxyphene, reference compound] | 3/5

Same assay, conditions: analgesic alone i.p. (Prop 15, Oxy 50, Asa 100 mg/kg); 60'

Row | SMILES | positive responses over the number treated, 60'
16 | CC(=O)Oc1ccccc1C(=O)O [Acetylsalicylic acid, reference compound] | 0/5
17 | CCCCC1C(=O)N(c2ccccc2)N(c2ccc(O)cc2)C1=O (stereo not drawn) [Oxyphenylbutazone, reference compound] | 0/5
18 | CCC(=O)O[C@](Cc1ccccc1)(c1ccccc1)[C@H](C)CN(C)C [Propoxyphene, reference compound] | 1/5
